# Test results as given in PubChem BioAssay AID1259411 (Chemical Carcinogenesis Research Information System (CCRIS), 2018).
# The source made the active and inactive calls. No rule for the calls is given here.
# Tested on: rodent carcinogenicity bioassays, tumor incidence
# Test: CCRIS carcinogenicity studies
# Procedure, shortened: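 Archive of carcinogenicity, mutagenicity, tumor promotion and tumor inhibition results drawn from journals, NCI reports and other sources, expert-reviewed; covers 1985-2011 and is no longer updated.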
smiles,measurement,setting,value
CC(Cl)CCl (configuration not stated),carcinogen call,"Species: MOUSE, Strain/Sex: B6C3F1/FEMALE, Route: GAVAGE, Dose: 0, 125, 250 MG/KG IN CORN OIL 5 D/WK FOR 103 WK (STUDY DURATION: 104 WK), Dose: 0, 125, 250 MG/KG IN CORN OIL 5 D/WK FOR 103 WK (STUDY DURATION: 104 WK), Tumor Site: Type of Lesion: LIVER: ADENOMA, ADENOMA OR CARCINOMA",active; positive
same,carcinogen call,"Species: MOUSE, Strain/Sex: B6C3F1/MALE, Route: GAVAGE, Dose: 0, 125, 250 MG/KG IN CORN OIL 5 D/WK FOR 103 WK (STUDY DURATION: 104 WK), Dose: 0, 125, 250 MG/KG IN CORN OIL 5 D/WK FOR 103 WK (STUDY DURATION: 104 WK), Tumor Site: Type of Lesion: LIVER: ADENOMA, ADENOMA OR CARCINOMA",active; positive
same,carcinogen call,"Species: RAT, Strain/Sex: F344/FEMALE, Route: GAVAGE, Dose: 0, 125, 150 MG/KG IN CORN OIL 5 D/WK FOR 103 WK (STUDY DURATION: 104 WK), Dose: 0, 125, 150 MG/KG IN CORN OIL 5 D/WK FOR 103 WK (STUDY DURATION: 104 WK), Tumor Site: Type of Lesion: MAMMARY GLAND: ADENOCARCINOMA",equivocal
same,carcinogen call,"Species: RAT, Strain/Sex: F344/MALE, Route: GAVAGE, Dose: 0, 62, 125 MG/KG IN CORN OIL 5 D/WK FOR 103 WK (STUDY DURATION: 104 WK), Dose: 0, 62, 125 MG/KG IN CORN OIL 5 D/WK FOR 103 WK (STUDY DURATION: 104 WK)",inactive; negative
Oc1ccc2ccccc2c1N=Nc1ccccc1,carcinogen call,"Species: MOUSE, Route: SUBCUTANEOUS, Tumor Site: Type of Lesion: LIVER",active; positive
same,carcinogen call,"Species: MOUSE, Strain/Sex: B6C3F1/MALE, Route: ORAL, Dose: 0, 500, 1000 PPM IN DIET, Dose: 0, 500, 1000 PPM IN DIET",inactive; negative
same,carcinogen call,"Species: RAT, Strain/Sex: F344/FEMALE, Route: ORAL, Dose: 0, 250, 500 PPM IN DIET, Dose: 0, 250, 500 PPM IN DIET, Tumor Site: Type of Lesion: LIVER: NEOPLASTIC NODULE",active; positive
same,carcinogen call,"Species: RAT, Strain/Sex: F344/MALE, Route: ORAL, Dose: O, 250, 500 PPM IN DIET, Dose: O, 250, 500 PPM IN DIET, Tumor Site: Type of Lesion: LIVER: NEOPLASTIC NODULE",active; positive
CCOCn1c(-c2ccc(Cl)cc2)c(C#N)c(Br)c1C(F)(F)F,carcinogen call,"Species: Mouse, Strain/Sex: CD-1/Female (65/group), Route: Oral, Dose: 0, 20, 120, 240 ppm in diet for 80 wk, Dose: 0, 20, 120, 240 ppm in diet for 80 wk",inactive; negative (study details not given in source; purity 94.5%)
same,carcinogen call,"Species: Mouse, Strain/Sex: CD-1/Male (65/group), Route: Oral, Dose: 0, 20, 120, 240 ppm in diet for 80 wk, Dose: 0, 20, 120, 240 ppm in diet for 80 wk",inactive; negative (study details not given in source; purity 94.5%)
same,carcinogen call,"Species: Rat, Strain/Sex: Sprague-Dawley/Female (65/group), Route: Oral, Dose: 0, 60, 300, 600 ppm in diet for up to 104 wk, Dose: 0, 60, 300, 600 ppm in diet for up to 104 wk",inactive; negative (study details not given in source; purity 94.5%)
same,carcinogen call,"Species: Rat, Strain/Sex: Sprague-Dawley/Male (65/group), Route: Oral, Dose: 0, 60, 300, 600 ppm in diet for up to 104 wk, Dose: 0, 60, 300, 600 ppm in diet for up to 104 wk",inactive; negative (study details not given in source; purity 94.5%)
N#[N+]c1ccccc1,carcinogen call,"Species: MOUSE, Strain/Sex: SWISS/FEMALE, Route: GAVAGE, Dose: 0, 100 MG/KG BW 1X/WK FOR 52 WK (STUDY DURATION: 140 WK), Tumor Site: Type of Lesion: LUNG: TUMOR",active; positive
same,carcinogen call,"Species: MOUSE, Strain/Sex: SWISS/FEMALE, Route: SUBCUTANEOUS, Dose: 0, 10 UG/G BW IN 0.01 ML OF 0.9% SALINE 1/WK FOR 26 WK (STUDY DURATION: 140WK), Tumor Site: Type of Lesion: SUBCUTANEOUS TISSUE: TUMOR",active; positive
same,carcinogen call,"Species: MOUSE, Strain/Sex: SWISS/FEMALE, Route: SUBCUTANEOUS, Dose: 0, 25 MG/KG BW 1X/WK FOR 10 WK (STUDY DURATION: 130 WK)",inactive; negative
same,carcinogen call,"Species: MOUSE, Strain/Sex: SWISS/MALE, Route: GAVAGE, Dose: 0, 100 MG/KG BW 1X/WK FOR 52 WK (STUDY DURATION: 130 WK), Tumor Site: Type of Lesion: LUNG: TUMOR",active; positive
same,carcinogen call,"Species: MOUSE, Strain/Sex: SWISS/MALE, Route: SUBCUTANEOUS, Dose: 0, 10 UG/G BW IN 0.01 ML OF 0.9% SALINE 1/WK FOR 26 WK (STUDY DURATION: 140 WK), Tumor Site: Type of Lesion: SUBCUTANEOUS TISSUE: TUMOR",active; positive
same,carcinogen call,"Species: MOUSE, Strain/Sex: SWISS/MALE, Route: SUBCUTANEOUS, Dose: 0, 25 MG/KG BW 1X/WK FOR 10 WK (STUDY DURATION: 120 WK)",inactive; negative
CC#N,carcinogen call,"Species: MOUSE, Strain/Sex: B6C3F1/FEMALE, Route: INHALATION, Dose: 0, 50, 100, 200 PPM 6 HR/D 5 D/WK FOR 103 WK (STUDY DURATION: 105 WK), Dose: 0, 50, 100, 200 PPM 6 HR/D 5 D/WK FOR 103 WK (STUDY DURATION: 105 WK)",inactive; negative
same,carcinogen call,"Species: MOUSE, Strain/Sex: B6C3F1/MALE, Route: INHALATION, Dose: 0, 50, 100, 200 PPM 6 HR/D 5 D/WK FOR 103 WK (STUDY DURATION: 105 WK), Dose: 0, 50, 100, 200 PPM 6 HR/D 5 D/WK FOR 103 WK (STUDY DURATION: 105 WK)",inactive; negative
same,carcinogen call,"Species: RAT, Strain/Sex: F344/FEMALE, Route: INHALATION, Dose: 0, 100, 200, 400 PPM 6/HR/D 5 D/WK FOR 103 WK (STUDY DURATION: 105 WK), Dose: 0, 100, 200, 400 PPM 6/HR/D 5 D/WK FOR 103 WK (STUDY DURATION: 105 WK)",inactive; negative
same,carcinogen call,"Species: RAT, Strain/Sex: F344/MALE, Route: INHALATION, Dose: 0, 100, 200, 400 PPM 6/HR/D 5 D/WK FOR 103 WK (STUDY DURATION: 105 WK), Dose: 0, 100, 200, 400 PPM 6/HR/D 5 D/WK FOR 103 WK (STUDY DURATION: 105 WK), Tumor Site: Type of Lesion: LIVER: HEPATOCELLULAR ADENOMA, HEPATOCELLULAR CARCINOMA, HEPATOCELLULAR ADENOMA OR CARCINOMA",equivocal
ClC#CCl,carcinogen call,"Species: MOUSE, Strain/Sex: NMRI/FEMALE, Route: INHALATION, Dose: 0, 2 PPM 6 HR/D 1 D/WK FOR 18 MO (STUDY DURATION: LIFE), Tumor Site: Type of Lesion: KIDNEY: CYSTADENOMA, LUNG: ADENOMA, HARDERIAN GLAND: CYSTADENOMA, Tumor Site: Type of Lesion: KIDNEY: CYSTADENOMA, LUNG: ADENOMA, HARDERIAN GLAND: CYSTADENOMA",active; positive
same,carcinogen call,"Species: MOUSE, Strain/Sex: NMRI/FEMALE, Route: INHALATION, Dose: 0, 2 PPM 6 HR/D 2 D/WK FOR 18 MO (STUDY DURATION: LIFE), Tumor Site: Type of Lesion: HARDERIAN GLAND: CYSTADENOMA",active; positive
same,carcinogen call,"Species: MOUSE, Strain/Sex: NMRI/FEMALE, Route: INHALATION, Dose: 0, 9 PPM 6 HR/D 1 D/WK FOR 12 MO (STUDY DURATION: LIFE), Tumor Site: Type of Lesion: KIDNEY: CYSTADENOMA, HARDERIAN GLAND: CYSTADENOMA",active; positive
same,carcinogen call,"Species: MOUSE, Strain/Sex: NMRI/MALE, Route: INHALATION, Dose: 0, 2 PPM 6 HR/D 1 D/WK FOR 18 MO (STUDY DURATION: LIFE), Tumor Site: Type of Lesion: KIDNEY: CYSTADENOMA, CYSTADENOCARCINOMA, HARDERIAN GLAND: CYSTADENOMA",active; positive
same,carcinogen call,"Species: MOUSE, Strain/Sex: NMRI/MALE, Route: INHALATION, Dose: 0, 2 PPM 6 HR/D 2 D/WK FOR 18 MO (STUDY DURATION: LIFE), Tumor Site: Type of Lesion: KIDNEY: CYSTADENOMA, HARDERIAN GLAND: CYSTADENOMA",active; positive
same,carcinogen call,"Species: MOUSE, Strain/Sex: NMRI/MALE, Route: INHALATION, Dose: 0, 9 PPM 6 HR/D 1 D/WK FOR 12 MO (STUDY DURATION: LIFE), Tumor Site: Type of Lesion: KIDNEY: CYSTADENOMA, CYSTADENOCARCINOMA",active; positive
same,carcinogen call,"Species: RAT, Strain/Sex: WISTAR/FEMALE, Route: INHALATION, Dose: 0, 14 PPM 6 HR/D 2 D/WK FOR 18 MO (STUDY DURATION: LIFE), Tumor Site: Type of Lesion: KIDNEY: CYSTADENOMA, LIVER: CHOLANGIOMA, HEMOPOIETIC SYSTEM: MALIGNANT LYMPHOMA, Tumor Site: Type of Lesion: KIDNEY: CYSTADENOMA, LIVER: CHOLANGIOMA, HEMOPOIETIC SYSTEM: MALIGNANT LYMPHOMA",active; positive
same,carcinogen call,"Species: RAT, Strain/Sex: WISTAR/MALE, Route: INHALATION, Dose: 0, 14 PPM 6 HR/D 2 D/WK FOR 18 MO (STUDY DURATION: LIFE), Tumor Site: Type of Lesion: KIDNEY: CYSTADENOMA, LIVER: CHOLANGIOMA",active; positive
Cc1cc2c(c3ccc4ccccc4c13)[C@@H]1O[C@@H]1[C@H](O)[C@H]2O,carcinogen call,"Species: MOUSE, Strain/Sex: ICR/FEMALE, Route: INTRAPERITONEAL, Dose: 8 NMOL/5 µL DMSO ON DAY 1, 16 NMOL/10 µL ON DAY 8, AND 32 NMOL/20 µL ON DAY 15 OF AGE (STUDY DURATION: 35 WK)",inactive; negative
same,carcinogen call,"Species: MOUSE, Strain/Sex: ICR/MALE, Route: INTRAPERITONEAL, Dose: 8 NMOL/5 µL DMSO ON DAY 1, 16 NMOL/10 µL ON DAY 8, AND 32 NMOL/20 µL ON DAY 15 OF AGE (STUDY DURATION: 35 WK), Tumor Site: Type of Lesion: LUNG: TUMORS",active; positive
